This is an account of results in article PMC6054424, “Expression and purification of a functional heteromeric GABAA receptor for structural studies” (PLoS ONE, 2018).

For data set [1], the target named is T1, GABAA receptor α1/β1 (α1 subunit) (Rattus norvegicus, UniProt P15431+P62813, P15431:DEL334-439/P15431:INS334GT/P62813:DEL341-408/P62813:INS341T).
T1 construct: gene Gabra1; purified α1/β1 receptor with M3/M4 loop truncations (α1-LT: Y341-P408 replaced with Thr; β1-LT: K334-K439 replaced with Gly-Thr), C-terminal His8 tag; with GABAA receptor β1 subunit (Gabrb1, P15431)
T1 sequence (P62813 with tags, fused parts or gaps DEL341-408/INS341T): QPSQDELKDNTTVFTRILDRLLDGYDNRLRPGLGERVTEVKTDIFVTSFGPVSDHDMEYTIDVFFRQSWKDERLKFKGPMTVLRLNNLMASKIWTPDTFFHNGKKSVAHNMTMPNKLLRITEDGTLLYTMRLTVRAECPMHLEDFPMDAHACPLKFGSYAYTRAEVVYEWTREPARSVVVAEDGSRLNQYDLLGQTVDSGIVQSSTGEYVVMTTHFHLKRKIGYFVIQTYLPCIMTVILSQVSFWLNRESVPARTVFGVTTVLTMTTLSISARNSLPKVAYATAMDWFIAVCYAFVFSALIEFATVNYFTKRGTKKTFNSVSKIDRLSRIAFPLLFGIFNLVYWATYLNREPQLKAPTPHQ
T1 sequence (P15431 with tags, fused parts or gaps DEL334-439/INS334GT): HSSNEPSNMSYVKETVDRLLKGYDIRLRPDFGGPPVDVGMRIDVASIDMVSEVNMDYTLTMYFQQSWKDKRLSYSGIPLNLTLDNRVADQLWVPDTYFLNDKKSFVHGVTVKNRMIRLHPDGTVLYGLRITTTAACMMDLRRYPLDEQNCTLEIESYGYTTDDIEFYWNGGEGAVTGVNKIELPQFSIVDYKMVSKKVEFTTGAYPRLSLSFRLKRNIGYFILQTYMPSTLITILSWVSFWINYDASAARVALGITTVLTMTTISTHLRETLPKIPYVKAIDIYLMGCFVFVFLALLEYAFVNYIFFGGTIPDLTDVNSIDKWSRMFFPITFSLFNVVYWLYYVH
The data set can be described thus: radioligand saturation binding by scintillation proximity assay on purified receptor in L-MNG. Background: Scintillation proximity formats need no separation of bound from free tracer.

Data set [2] concerns the molecule itself. Nature of the data set: SEC; fluorescence detection SEC (FSEC) of 8-12 oocytes solubilised with 40 mM C12M; Superose6 10/300 GL in TBS pH 8.0, 1 mM C12M, 1 mM EDTA; GFP fluorescence of the tagged subunit followed; ferritin and EGFP as standards.

What is called Kd is the concentration at which binding is half-saturated. Read a low Kd as tighter binding. As to `NCc1cc(=O)[nH]o1` [muscimol], the Kd in data set [1] came out at 24 ± 1.1 nM.

B1: GluClα-EGFP (α subunit of the glutamate-gated chloride channel from C. elegans, EGFP in the M3/M4 loop) (receptor, UniProt G5EBR3 21-461, looked up)
chain: QQARTKSQDIFEDDNDNGTTTLESLARLTSPIHIPIEQPQTSDSKILAHLFTSGYDFRVRPPTDNGGPVVVSVNMLLRTISKIDVVNMEYSAQLTLRESWIDKRLSYGVKGDGQPDFVILTVGHQIWMPDTFFPNEKQAYKHTIDKPNVLIRIHNDGTVLYSVRISLVLSCPMYLQYYPMDVQQCSIDLASYAYTTKDIEYLWKEHSPLQLKVGLSSSLPSFQLTNTSTTYCTSVTNTGIYSCLRTTIQLKREFSFYLLQLYIPSCMLVIVSWVSFWFDRTAIPARVTLGVTTLLTMTAQSAGINSQLPPVSYIKAIDVWIGACMTFIFCALLEFALVNHIANKQGVERKARTEREKAEIPLLQNLHNDVPTKVFNQEEKVRTVPLNRRQMNSFLNLLETKTEWNDISKRVDLISRALFPVLFFVFNILYWSRFGQQNVLF
notes: glutamate-gated chloride channel α subunit (GluClα), C. elegans; source: Xenopus oocytes injected with synthetic mRNA, in C12M-solubilised oocytes; not shown: EGFP, internal (M3/M4 loop)
Broadly, the stoichiometry N is the number of molecules, sites or subunits per partner or assembly. Turning to B1, the “stoichiometry N” value in data set [2] is 5.
